We go through 58 compounds from patent publication US8999957B2, “Heterocyclic compounds as ERK inhibitors” (Merck Sharp & Dohme Corp., priority 2010, dated 2015).

Test [1] addresses fully phosphorylated, mouse aERK2 enzyme (Mus musculus (Mouse), UniProt P63085). Nature of the test: Active ERK2 (aERK) IMAP-FP assay, condition 2. Type of test: biochemical. On the procedure: (§1) Active ERK2 (aERK) Assay: (Unless Indicated Otherwise, the Data Provided for aERK was obtained using Condition 1)
Activated ERK2 activity was determined in an IMAP-FP assay (Molecular Devices). […] Phosphorylation reactions were allowed to proceed for 40-45 minutes and were immediately quenched by the addition of 60 μL IMAP detection beads (1:1000 dilutions) in IMAP binding buffer. Plates were read on EnVision reader after 30 minutes binding equilibration.

The target in test [2] is fully phosphorylated, active Mouse ERK2 protein (Mus musculus (Mouse), UniProt P63085). Nature of the test: Active ERK2 (aERK) IMAP assay, condition 1. The format is biochemical. To be noted: aERK assay condition 1, 30 μM ATP. On the procedure: as §1
fully phosphorylated, active Mouse ERK2 protein, sequence (P63085 whole entry): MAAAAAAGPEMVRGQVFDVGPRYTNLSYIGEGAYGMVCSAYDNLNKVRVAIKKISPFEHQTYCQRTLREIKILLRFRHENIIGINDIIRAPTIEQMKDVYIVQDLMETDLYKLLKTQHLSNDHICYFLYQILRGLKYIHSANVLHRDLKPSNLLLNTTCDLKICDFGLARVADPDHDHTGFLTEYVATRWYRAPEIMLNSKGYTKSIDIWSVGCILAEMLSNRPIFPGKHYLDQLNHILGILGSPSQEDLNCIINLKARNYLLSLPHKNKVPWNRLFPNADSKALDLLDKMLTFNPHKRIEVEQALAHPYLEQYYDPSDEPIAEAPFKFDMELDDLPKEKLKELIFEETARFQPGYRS
Activated ERK2 activity was also determined in the IMAP assay format using the procedure outlined above. […] Reactions proceeded for 30 minutes before termination by addition of 60 μl IMAP detection beads in binding buffer. Plates were read as above after 30 minute binding equilibration.

Setting [3] is: aERK assay condition 2, 30 uM ATP, read-out: aERK IC50.
Where [4] appears, read: active ERK2, read-out: aErk2 Ic50.

pIC50: −log10 of the molar value. Like-named read-outs stand apart in the source and are kept apart here.

fully phosphorylated, mouse aERK2 enzyme, sequence (P63085 whole entry): as above

Broadly, the pIC50 is −log10 of the IC50, conventionally taken in molar units. On to `NC(=O)C(c1ccccc1F)N1CCC[C@@H](NC(=O)c2ccc3[nH]nc(-c4ccncc4)c3c2)C1` (single isomer, unassigned) [N-((R)-1-((R or S)-2-amino-1-(2-fluorophenyl)-2-oxoethyl)-piperidin-3-yl)-3-(pyridin-4-yl)-1H-indazole-5-carboxamide], for which the pIC50 in test [1] (setting [3]) is 7.14.

Turning to `Cc1cc(-c2n[nH]c3ccc(C(=O)N[C@@H]4CC[C@@H](C(=O)N(C)C)N(Cc5ccccc5F)C4)cc23)ccn1` [N-[(3R,6S)-6-(dimethylcarbamoyl)-1-(2-fluorobenzyl)piperidin-3-yl]-3-(2-methylpyridin-4-yl)-1H-indazole-5-carboxamide], the pIC50 in test [1] (setting [4]) was 7.40.

For the compound `Cc1cc(-c2n[nH]c3ccc(C(=O)N[C@@H]4CC[C@@H](C(=O)Nc5nccs5)N(CCc5ccccc5)C4)cc23)ccn1` [3-(2-methylpyridin-4-yl)-N-[(3R,6S)-1-(2-phenylethyl)-6-(1,3-thiazol-2-ylcarbamoyl)-piperidin-3-yl)-1H-indazole-5-carboxamide], the pIC50 in test [1] (setting [4]) was 6.88.

Take `Cc1cc(-c2n[nH]c3ccc(C(=O)N[C@@H]4CC[C@@H](C(=O)N5CC(F)(F)C5)N(CCc5ccccc5)C4)cc23)ccn1` [N-[(3R,6S)-6-[(3,3-difluoroazetidin-1-yl)carbonyl]-1-(2-phenylethyl)piperidin-3-yl]-3-(2-methylpyridin-4-yl)-1H-indazole-5-carboxamide]: the pIC50 in test [1] (setting [4]) was 6.63.

With `COc1cccc(F)c1CN1C[C@H](NC(=O)c2ccc3[nH]nc(-c4ccnc(C)c4)c3c2)CC[C@H]1C(=O)NC1CCCC1`, the pIC50 in test [1] (setting [4]) is 6.98.

For the compound `O=C(N[C@@H]1CCCN(CC2CC2)C1)c1ccc2[nH]nc(-c3ccncc3)c2c1`, in test [1] (setting [3]), the pIC50 is 6.69.

Turning to `COc1cccc(F)c1CN1C[C@H](NC(=O)c2ccc3[nH]nc(-c4ccnc(C)c4)c3c2)CC[C@H]1C(=O)NCCO` [N-{(3R,6S)-1-(2-fluoro-6-methoxybenzyl)-6-[(2-hydroxyethyl)carbamoyl]piperidin-3-yl}-3-(2-methylpyridin-4-yl)-1H-indazole-5-carboxamide], in test [1] (setting [4]), the pIC50 is 8.25.

`Cn1cc2cc(-c3n[nH]c4ccc(C(=O)N[C@@H]5C[C@H](C(F)(F)F)CN(Cc6c(F)cccc6F)C5)cc34)ccc2n1` gave a negative-log IC50 (pIC50) in test [2] of 7.40.

`O=C(N[C@@H]1CNCC[C@H]1c1ccccc1)c1ccc2[nH]nc(-c3ccc4[nH]ncc4c3)c2c1` had a pIC50 in test [2] of 7.86.

For `COc1cccc(F)c1CN1C[C@H](NC(=O)c2ccc3[nH]nc(-c4ccc5nccn5c4)c3c2)CC(F)(F)C1`, the pIC50 in test [2] is 7.62.

For `COc1cccc(F)c1CN1C[C@H](NC(=O)c2ccc3[nH]nc(-c4ccnc(C)c4)c3c2)CC[C@H]1C(=O)N1CCC(O)CC1` [N-{(3R,6S)-1-(2-fluoro-6-methoxybenzyl)-6-[(4-hydroxypiperidin-1-yl)carbonyl]piperidin-3-yl}-3-(2-methylpyridin-4-yl)-1H-indazole-5-carboxamide], in test [2], the negative logarithm of the IC50 (pIC50) is 7.84.

In the case of `O=C(NC1COCCN(CCc2c(F)cccc2F)C1)c1ccc2[nH]nc(-c3ccncc3)c2c1` (stereo not shown), the pIC50 in test [2] was 7.68.

In test [2], `CN1CC(NC(=O)c2ccc3[nH]nc(-c4ccc5nccn5c4)c3c2)CCC1C1CC1` (stereo not shown) had a pIC50 of 6.40.

Compound `O=C(NC1CCCCN(Cc2ccccc2)C1)c1ccc2[nH]nc(-c3ccncc3)c2c1` (stereo not shown) showed a negative logarithm of the IC50 (pIC50) in test [2] of 6.60.

The compound `O=C(N[C@@H]1CC[C@H](C(=O)NCc2ccccc2)NC1)c1ccc2[nH]nc(-c3ccncc3)c2c1` had a negative-log IC50 (pIC50) in test [2] of 6.43.

As for `O=C(N[C@@H]1CNCC[C@H]1c1ccccc1)c1ccc2[nH]nc(-c3ccc4c(c3)OCO4)c2c1`, the pIC50 in test [2] was 7.57.

In test [2], `COc1cccc(F)c1CN1CCC[C@@H](NC(=O)c2ccc3[nH]nc(-c4ccc5nsnc5c4)c3c2)C1` had a pIC50 of 6.76.

For `COc1cccc(F)c1CN1CCC(F)C(NC(=O)c2ccc3[nH]nc(-c4ccc5nccn5c4)c3c2)C1` (stereo not shown), the pIC50 in test [2] was 7.79.

In the case of `O=C(N[C@@H]1CCCN(Cc2c(F)cccc2F)C1)c1ccc2[nH]nc(-c3ccc4c(c3)CCO4)c2c1`, the pIC50 in test [2] was 6.76.

`COc1cccc(F)c1CN1CCC[C@@H](NC(=O)c2ccc3[nH]nc(-c4ccc5ncsc5c4)c3c2)C1` had a pIC50 in test [2] of 7.55.

In test [2], `O=C(NC12CC1CCN(Cc1c(F)cccc1F)C2)c1ccc2[nH]nc(-c3ccc4nccn4c3)c2c1` (stereo not shown) showed a pIC50 of 6.87.

`CN1C[C@H](Cc2c(F)cccc2F)C[C@H](NC(=O)c2ccc3[nH]nc(-c4ccn5ccnc5c4)c3c2)C1` gave a negative logarithm of the IC50 (pIC50) in test [2] of 8.80.

Compound `COc1cccc(F)c1CN1CCC[C@@H](NC(=O)c2ccc3[nH]nc(-c4ccc5nc(C(F)(F)F)nn5c4)c3c2)C1` had a negative logarithm of the IC50 (pIC50) in test [2] of 6.08.

In test [2], `CN1CC(Cc2c(F)cccc2F)CC(NC(=O)c2ccc3[nH]nc(-c4ccc5ncsc5c4)c3c2)C1` (stereo not shown) had a negative logarithm of the IC50 (pIC50) of 8.57.

In the case of `O=C(NC1CN(Cc2ccccc2F)CC(F)(F)C1)c1ccc2[nH]nc(-c3ccncc3)c2c1` (stereo not shown), the negative logarithm of the IC50 (pIC50) in test [2] was 6.90.

Turning to `O=C(N[C@@H]1CNCC[C@H]1c1ccccc1)c1ccc2[nH]nc(-c3ccc4c(c3)CCO4)c2c1`, the negative-log IC50 (pIC50) in test [2] is 7.64.

Compound `COc1ccccc1CN1CC(NC(=O)c2ccc3[nH]nc(-c4ccncc4)c3c2)CC(F)(F)C1` (stereo not shown) showed a pIC50 in test [2] of 6.78.

Consider `COc1cccc(F)c1CN1CCC[C@@H](NC(=O)c2ccc3[nH]nc(-c4nc5ccccc5s4)c3c2)C1`, for which the negative-log IC50 (pIC50) in test [2] was 6.53.

As for `O=C(NC1CN(Cc2c(F)cccc2F)CC(F)(F)C1)c1ccc2[nH]nc(-c3ccncc3)c2c1` (stereo not shown), the pIC50 in test [2] was 6.62.

As for `COc1cccc(F)c1CN1CC(NC(=O)c2ccc3[nH]nc(-c4ccncc4)c3c2)CC(F)(F)C1` (stereo not shown), in test [2], the negative-log IC50 (pIC50) was 7.76.

`CN(C)C(=O)[C@@H]1CC[C@@H](NC(=O)c2ccc3[nH]nc(-c4ccncc4)c3c2)CN1Cc1ccccc1`: the pIC50 in test [2] was 7.29.

Regarding `CC(C)Oc1ccc(-c2n[nH]c3ccc(C(=O)N[C@@H]4CNCC[C@H]4c4ccccc4)cc23)cc1`, the pIC50 in test [2] is 7.30.

`Cc1cccc(C)c1CN1CC(NC(=O)c2ccc3[nH]nc(-c4ccncc4)c3c2)CC(F)(F)C1` (stereo not shown): in test [2], the pIC50 was 6.34.

Regarding `O=C(N[C@@H]1CCCN(Cc2ncon2)C1)c1ccc2[nH]nc(-c3ccncc3)c2c1`, in test [2], the negative-log IC50 (pIC50) is 7.30.

Compound `COc1cccc(F)c1CN1CCC[C@@H](NC(=O)c2ccc3[nH]nc(-c4ccn5ncnc5c4)c3c2)C1` gave a pIC50 in test [2] of 7.16.

In the case of `Cc1cc(-c2n[nH]c3ccc(C(=O)N[C@@H]4CCCN(CC(F)(F)c5ccccc5)C4)cc23)ccn1`, the pIC50 in test [2] is 7.12.

In the case of `Cc1cc(-c2n[nH]c3ccc(C(=O)NC4CC(Cc5c(F)cccc5F)CN(C)C4)cc23)ccn1` (stereo not shown) [N-(5-(2,6-difluorobenzyl)-1-methylpiperidin-3-yl)-3-(2-methylpyridin-4-yl)-1H-indazole-5-carboxamide], the negative logarithm of the IC50 (pIC50) in test [2] is 8.32.

For the compound `CC(C)Oc1ccc(-c2n[nH]c3ccc(C(=O)N[C@@H]4CNCC[C@H]4c4ccccc4)cc23)cn1`, the negative logarithm of the IC50 (pIC50) in test [2] was 7.07.

`COC(=O)[C@@H]1CC[C@@H](NC(=O)c2ccc3[nH]nc(-c4ccncc4)c3c2)CN1Cc1ccccc1` had a pIC50 in test [2] of 7.39.

On to `CN1C[C@H](NC(=O)c2ccc3[nH]nc(-c4ccncc4)c3c2)CC[C@H]1C(=O)NCc1ccccc1`, for which the negative logarithm of the IC50 (pIC50) in test [2] is 6.46.

Turning to `CN1CC(Cc2c(F)cccc2F)CC(NC(=O)c2ccc3[nH]nc(-c4nc5ccccc5s4)c3c2)C1` (stereo not shown), the pIC50 in test [2] is 7.65.

In test [2], `CC(C)Oc1ccc(-c2n[nH]c3ccc(C(=O)N[C@@H]4CN(C)CC[C@H]4c4ccccc4)cc23)cc1` showed a negative-log IC50 (pIC50) of 6.52.

`COc1ccccc1CCN1CCCCC(NC(=O)c2ccc3[nH]nc(-c4ccncc4)c3c2)C1` (stereo not shown) gave a pIC50 in test [2] of 7.51.

The compound `CC(C)C(NC(=O)[C@@H]1CC[C@@H](NC(=O)c2ccc3[nH]nc(-c4ccncc4)c3c2)CN1Cc1ccccc1)C(C)C` gave a negative-log IC50 (pIC50) in test [2] of 6.58.

As to `O=C(NC1CCCCN(CCc2ccc(F)cc2)C1)c1ccc2[nH]nc(-c3ccncc3)c2c1` (stereo not shown), the pIC50 in test [2] is 7.01.

In test [2], `O=C(NC1CCCCN(Cc2ccccc2F)C1)c1ccc2[nH]nc(-c3ccncc3)c2c1` (stereo not shown) gave a negative logarithm of the IC50 (pIC50) of 7.10.

On to `COc1cccc(F)c1CN1CCC2CC2(NC(=O)c2ccc3[nH]nc(-c4ccc5nccn5c4)c3c2)C1` (stereo not shown), for which, in test [2], the negative-log IC50 (pIC50) is 7.07.

Regarding `COc1cccc(F)c1CN1C[C@@H](C)C[C@@H](NC(=O)c2ccc3[nH]nc(-c4ccc5nc(C)sc5c4)c3c2)C1`, in test [2], the pIC50 was 8.44.

Compound `COc1cccc(F)c1CN1C[C@@H](C)C[C@@H](NC(=O)c2ccc3[nH]nc(-c4nc5ccccc5s4)c3c2)C1` showed a negative-log IC50 (pIC50) in test [2] of 7.21.

For `O=C(N[C@@H]1CCCN(Cc2c(F)cccc2F)C1)c1ccc2[nH]nc(-c3ccncc3)c2c1`, in test [2], the pIC50 is 7.44.

Consider `CNC(=O)[C@@H]1CC[C@@H](NC(=O)c2ccc3[nH]nc(-c4ccncc4)c3c2)CN1Cc1c(F)cccc1OC` [drawing 383], for which the pIC50 in test [2] was 8.62.

Consider `Cc1cc(-c2n[nH]c3ccc(C(=O)N[C@@H]4CCCN(CC(O)c5ccccc5F)C4)cc23)ccn1` (stereo partly shown), for which the pIC50 in test [2] was 6.74.

`COc1cccc(F)c1CN1CC(NC(=O)c2ccc3[nH]nc(-c4ccnc(C)c4)c3c2)CCC1C` (stereo not shown): the pIC50 in test [2] is 7.57.

For the compound `Cc1nc2ccc(-c3n[nH]c4ccc(C(=O)N[C@@H]5C[C@@H](Cc6c(F)cccc6F)CN(C)C5)cc34)cn2n1`, the pIC50 in test [2] was 7.32.

Turning to `CCN1CC[C@@H](c2ccccc2)[C@H](NC(=O)c2ccc3[nH]nc(-c4ccc(OC(C)C)nc4)c3c2)C1`, in test [2], the pIC50 is 6.52.

Consider `O=C(N[C@@H]1CNCC[C@H]1c1ccccc1)c1ccc2[nH]nc(-c3ccc4[nH]c(=O)[nH]c4c3)c2c1`, for which the negative logarithm of the IC50 (pIC50) in test [2] is 7.30.

Turning to `O=C(NC1CCCCN(CCc2ccccc2)C1)c1ccc2[nH]nc(-c3ccncc3)c2c1` (stereo not shown), in test [2], the negative logarithm of the IC50 (pIC50) is 8.06.

In test [2], `CN1CC(Cc2c(F)cccc2F)CC(NC(=O)c2ccc3[nH]nc(-c4ccc5nn(C)cc5c4)c3c2)C1` (stereo not shown) gave a negative logarithm of the IC50 (pIC50) of 8.86.
